Key:
[1] = target: T1, CYP2B6 (Homo sapiens, UniProt P20813); details: CYP2B6 replicates, primary human hepatocytes, 72 h exposure
T1 sequence (P20813 1-491): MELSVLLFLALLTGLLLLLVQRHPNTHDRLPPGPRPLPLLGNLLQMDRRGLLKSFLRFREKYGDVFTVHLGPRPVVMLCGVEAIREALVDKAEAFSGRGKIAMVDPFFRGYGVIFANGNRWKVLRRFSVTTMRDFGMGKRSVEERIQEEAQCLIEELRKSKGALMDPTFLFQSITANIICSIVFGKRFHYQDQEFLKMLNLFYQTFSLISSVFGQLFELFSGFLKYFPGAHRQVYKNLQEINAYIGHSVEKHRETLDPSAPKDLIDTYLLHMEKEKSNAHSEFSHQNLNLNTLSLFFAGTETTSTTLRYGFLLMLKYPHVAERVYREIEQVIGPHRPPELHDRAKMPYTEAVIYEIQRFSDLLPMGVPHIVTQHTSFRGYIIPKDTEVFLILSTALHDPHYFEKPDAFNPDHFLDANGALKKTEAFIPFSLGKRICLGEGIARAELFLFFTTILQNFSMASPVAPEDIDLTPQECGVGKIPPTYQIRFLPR

[2] = target: T2, CYP1A2 (Homo sapiens, UniProt P05177); assay: CYP1A2 activity (P450-Glo, Luciferin-1A2) in primary human hepatocyte spheroids and monolayers after 72 h drug exposure; format: in vitro ADME; details: primary human hepatocytes, 72 h exposure
T2 sequence (P05177 1-516): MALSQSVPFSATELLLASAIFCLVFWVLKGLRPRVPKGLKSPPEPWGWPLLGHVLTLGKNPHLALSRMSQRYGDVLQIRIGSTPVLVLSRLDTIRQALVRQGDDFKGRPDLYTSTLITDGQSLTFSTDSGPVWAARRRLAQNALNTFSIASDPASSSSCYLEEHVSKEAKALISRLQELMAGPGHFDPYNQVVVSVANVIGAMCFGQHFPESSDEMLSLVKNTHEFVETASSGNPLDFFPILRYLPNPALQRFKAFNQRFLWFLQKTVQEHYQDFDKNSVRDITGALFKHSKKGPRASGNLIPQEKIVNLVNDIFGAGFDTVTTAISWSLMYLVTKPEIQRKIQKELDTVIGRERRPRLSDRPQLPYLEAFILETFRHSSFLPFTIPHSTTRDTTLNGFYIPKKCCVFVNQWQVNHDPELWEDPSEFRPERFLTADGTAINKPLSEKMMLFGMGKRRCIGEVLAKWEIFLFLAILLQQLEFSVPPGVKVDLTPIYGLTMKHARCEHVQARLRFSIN

SMILES | CYP2B6 activity in the presence of toxicity [1] | CYP1A2 activity in the presence of toxicity [2] | CYP1A2 induction, monolayers compared to spheroids ([2]; normalized to control)
CO[C@H]1/C=C/O[C@@]2(C)Oc3c(C)c(O)c4c(O)c(c(/C=N/N5CCN(C)CC5)c(O)c4c3C2=O)NC(=O)/C(C)=C\C=C\[C@H](C)[C@H](O)[C@@H](C)[C@@H](O)[C@@H](C)[C@H](OC(C)=O)[C@@H]1C [rifampicin] | no observed decrease in CYP activity despite toxicity | – | –
COc1ccc2[nH]c([S+]([O-])Cc3ncc(C)c(OC)c3C)nc2c1 (stereo not drawn) [omeprazole] | – | no observed decrease in CYP activity despite toxicity | higher in monolayers compared to spheroids

Source: article PMC5454994, “Assembly of Hepatocyte Spheroids Using Magnetic 3D Cell Culture for CYP450 Inhibition/Induction” (International Journal of Molecular Sciences, 2017)
